Source: patent US20220079993A1, “NON-NATURALLY OCCURRING THERMOGENIC ADIPOCYTES, METHODS OF MAKING, AND METHODS OF USE THEREOF” (University of Georgia Research Foundation, Inc., priority 2019, published 2022)
Where a name gives a salt, the structure may show the parent alone. Read-outs that look alike come from different tables or passages of the source.

Legend:
[1] = tested on: beige adipocytes; assay: High-throughput primary screen, lipolysis assay (glycerol release), 384-well; format: cell-based, human; details: 20 μM; for % Control (relative levels of glycerol release): 24 hours of drug treatment, vs untreated beige adipocytes
Experimental: ADSCs were seeded at 5000 cell/cm^2 in 12-well plates, grown for 5 days and then induced to differentiate into GC for 20 days. […] Cells were treated with forskolin (20 μM) for indicated time periods and supernatant samples were collected. Lipolysis assay was performed with free glycerol reagent (Sigma, F6428-40ML), according to manufacturer instructions.
ADSCs were plated in 384-well plates at a density of 5000 cell/cm2 and grown to confluency over ˜4 days. Cells were then differentiated to beige adipocytes using B-8 medium for 21 days. All cell culture and incubations in the 384-well format were done at 37° C. and 5% CO2. […] The use of FDA-approved drugs may allow for re-purposing for therapeutic use.
(§1) Lipolysis assays were performed after 24 hours of drug treatment by measuring free glycerol released in the 384-well format, using the procedure described above. Absorbance for each compound was normalized to untreated control samples for each plate and calculated as a percent of the control. Cut-offs for “activating” and “inhibiting” compounds were set at 2-fold. Validation assays were performed for select compounds at a range of concentration doses.

[2] = tested on: beige adipocytes; assay: Lipolysis validation assays of primary hits at three concentrations; format: cell-based, human; details: Homo sapiens, Adipocyte, 24 h; for activity at 2.2 µM: Conc. 2.2 µM; for activity at 6.7 µM: Conc. 6.7 µM; for activity at 20 µM: Conc. 20 µM; for activity at 2200 µM: Conc. 2.2 mM
Experimental: ADSCs were seeded at 5000 cell/cm^2 in 12-well plates, grown for 5 days and then induced to differentiate into GC for 20 days. Prior to the assay, cells were washed in DPBS twice and then incubated with DMEM with 2% fatty-acid free BSA (Santa Crus, sc-500949) and Triascin C (5 μM). Cells were treated with forskolin (20 μM) for indicated time periods and supernatant samples were collected. Lipolysis assay was performed with free glycerol reagent (Sigma, F6428-40ML), according to manufacturer instructions.
as §1
Next, lipolysis assays were performed for all 111 compounds identified in the primary screen at three different concentrations, of which twenty-four were selected for further analysis based on their newness and/or reproducibility.

Row | Compound | % Control (relative levels of glycerol release) [1] [% control] | activity at 2.2 µM ([2]; read-out: % of Control (2)) [%] | activity at 2.2 µM ([2]; read-out: % of Control (4)) [%] | activity at 6.7 µM ([2]; read-out: % of Control (1)) [%] | activity at 6.7 µM ([2]; read-out: % of Control (2)) [%] | activity at 6.7 µM ([2]; read-out: % of Control (3)) [%] | activity at 6.7 µM ([2]; read-out: % of Control (4)) [%] | activity at 20 µM ([2]; read-out: % of Control (1)) [%] | activity at 20 µM ([2]; read-out: % of Control (2)) [%] | activity at 20 µM ([2]; read-out: % of Control (3)) [%] | activity at 20 µM ([2]; read-out: % of Control (4)) [%] | activity at 2200 µM ([2]; read-out: % of Control (1)) [%] | activity at 2200 µM ([2]; read-out: % of Control (3)) [%] | Outcome in the primary screen (glycerol release), in words ([1]; 24 hours, cut-offs at 2-fold)
1 | CC(C)NCC(O)c1ccc(O)c(O)c1.Cl (racemic) [(±)-Isoproterenol hydrochloride] | 389.02 | – | – | – | – | – | – | – | – | – | – | – | – | –
2 | O=C(Nc1c[nH]nc1-c1nc2ccc(CN3CCOCC3)cc2[nH]1)NC1CC1 [AT9283] | – | 115 | 133 | 151 | 152 | 161 | 177 | 132 | 144 | 202 | 159 | 163 | 142 | –
3 | CC(=O)Nc1ccccc1 [Acetanilide] | – | 377 | 119 | 252 | 332 | 246 | 249 | 298 | 295 | 253 | 258 | 317 | 251 | –
4 | CC(C)(C)NCC(O)COc1cccc2c1CCC(=O)N2.Cl (stereo not drawn) [Carteolol HLC] | 32.31 | – | – | – | – | – | – | – | – | – | – | – | – | –
5 | CCc1cnn2c(NCc3ccc[n+]([O-])c3)cc(N3CCCC[C@H]3CCO)nc12 [Dinaciclib] | – | 232 | 179 | 180 | 204 | 149 | 129 | 291 | 246 | 60.7 | 262 | 175 | 193 | –
6 | CCOC(=O)C1=C(C)NC(C)=C(C(=O)OC)C1c1cccc(Cl)c1Cl (stereo not drawn) [Felodipine] | – | 220 | 206 | 284 | 241 | 228 | 256 | 291 | 274 | 244 | 245 | 243 | 203 | –
7 | CCC(NC(C)C)C(O)c1ccc(O)c(O)c1 (stereo not drawn) [Isoetharine Mesylate] | – | 307 | 106 | 373 | 301 | 339 | 247 | 417 | 304 | 204 | 260 | 294 | 258 | –
8 | CC(C)NCC(O)c1ccc(O)c(O)c1 (stereo not drawn) [Isoproterenol HCl] | – | 272 | 251 | 284 | 294 | 241 | 236 | 289 | 268 | 252 | 237 | 282 | 236 | identified as primary hits
9 | C[C@@H]1CC(=O)NN=C1c1ccc(NN=C(C#N)C#N)cc1 [Levosimendan] | – | 163 | 236 | 197 | 189 | 211 | 246 | 261 | 280 | 247 | 340 | 215 | 189 | –
10 | CC(Oc1c(Cl)cccc1Cl)C1=NCCN1 (stereo not drawn) [Lofexidine HCl] | – | 115 | 91.4 | 122 | 176 | 180 | 149 | 205 | 200 | 148 | 191 | 104 | 119 | –
